Laboratory results: patent publication US20210300900A1, “OGA INHIBITOR COMPOUNDS” (Janssen Pharmaceutica NV, priority 2018, published 2021)

Biological target: T1, recombinant human Meningioma Expressed Antigen 5 (MGEA5), also referred to as O-GcNAcase (OGA) (Homo sapiens, UniProt O60502)
T1 construct: Full length OGA enzyme was purchased at OnGene (cat #TP322411); purchased OnGene (so in the source)
T1 sequence (O60502 1-916): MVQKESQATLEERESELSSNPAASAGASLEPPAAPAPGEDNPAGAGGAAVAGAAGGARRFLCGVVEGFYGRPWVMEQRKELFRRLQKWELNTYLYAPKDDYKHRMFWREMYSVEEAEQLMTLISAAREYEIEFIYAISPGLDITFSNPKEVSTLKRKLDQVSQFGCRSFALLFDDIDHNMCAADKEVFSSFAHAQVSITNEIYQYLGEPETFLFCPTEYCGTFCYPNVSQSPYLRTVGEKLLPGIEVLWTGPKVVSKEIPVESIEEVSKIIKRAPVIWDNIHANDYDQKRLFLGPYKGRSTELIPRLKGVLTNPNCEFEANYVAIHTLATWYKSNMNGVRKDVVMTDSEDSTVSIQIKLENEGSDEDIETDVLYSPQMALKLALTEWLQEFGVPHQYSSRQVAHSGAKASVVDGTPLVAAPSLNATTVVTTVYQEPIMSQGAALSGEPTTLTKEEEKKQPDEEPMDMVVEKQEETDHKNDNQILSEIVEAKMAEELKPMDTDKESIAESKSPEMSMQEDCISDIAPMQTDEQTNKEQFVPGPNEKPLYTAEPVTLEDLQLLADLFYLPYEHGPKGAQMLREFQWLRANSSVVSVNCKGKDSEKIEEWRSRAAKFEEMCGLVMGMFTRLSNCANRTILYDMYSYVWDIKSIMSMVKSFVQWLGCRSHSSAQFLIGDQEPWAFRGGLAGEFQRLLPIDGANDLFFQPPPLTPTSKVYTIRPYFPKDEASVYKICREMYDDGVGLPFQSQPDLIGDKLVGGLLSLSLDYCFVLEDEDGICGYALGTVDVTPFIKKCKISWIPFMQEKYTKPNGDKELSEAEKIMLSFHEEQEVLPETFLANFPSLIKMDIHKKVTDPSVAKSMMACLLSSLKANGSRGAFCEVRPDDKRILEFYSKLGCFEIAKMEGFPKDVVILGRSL
Test: OGA biochemical assay (inhibition of FM-GlcNAc hydrolysis, fluorescence)
Details: FM-GlcNAc substrate; for Emax: read-out: Enzymatic Emax (%); for IC50: read-out: Enzymatic hOGA, pIC50 (converted)
Excerpt: The assay is based on the inhibition of the hydrolysis of fluorescein mono-β-D-N-Acetyl-Glucosamine (FM-GlcNAc) (Mariappa et al. 2015, Biochem J 470:255) by the recombinant human Meningioma Expressed Antigen 5 (MGEA5), also referred to as O-GcNAcase (OGA). The hydrolysis FM-GlcNAc (Marker Gene technologies, cat #M1485) results in the formation of B-D-N-glucosamineacetate and fluorescein. The fluorescence of the latter can be measured at excitation wavelength 485 nm and emission wavelength 538 nm. An increase in enzyme activity results in an increase in fluorescence signal. Full length OGA enzyme was purchased at OnGene (cat #TP322411). The enzyme was stored in 25 mM Tris.HCl, pH 7.3, 100 mM glycine, 10% glycerol at −20° C. Thiamet G and GlcNAcStatin were tested as reference compounds (Yuzwa et al. 2008 Nature Chemical Biology 4:483; Yuzwa et al. 2012 Nature Chemical Biology 8:393). The assay was performed in 200 mM Citrate/phosphate buffer supplemented with 0.005% Tween-20. 35.6 g Na2HPO4 2H2O (Sigma, #C0759) were dissolved in 1 L water to obtain a 200 mM solution. 19.2 g citric acid (Merck, #1.06580) was dissolved in 1 L water to obtain a 100 mM solution. pH of the sodiumphosphate solution was adjusted with the citric acid solution to 7.2. The buffer to stop the reaction consists of a 500 mM Carbonate buffer, pH 11.0. 734 mg FM-GlcNAc were dissolved in 5.48 mL DMSO to obtain a 250 mM solution and was stored at −20° C. OGA was used at a 2 nM concentration and FM-GlcNAc at a 100 uM final concentration. Dilutions were prepared in assay buffer.
50 nl of a compound dissolved in DMSO was dispensed on Black Proxiplate TM 384 Plus Assay plates (Perkin Elmer, #6008269) and 3 μl fl-OGA enzyme mix added subsequently. Plates were pre-incubated for 60 min at room temperature and then 2 μl FM-GlcNAc substrate mix added. […] Plates were briefly centrifuged for 1 min at 1000 rpm and incubate at room temperature for 6 h. To stop the reaction 5 μl STOP buffer were added and plates centrifuge again 1 min at 1000 rpm. Fluorescence was quantified in the Thermo Scientific Fluoroskan Ascent or the PerkinElmer EnVision with excitation wavelength 485 nm and emission wavelength 538 nm.
For analysis a best-fit curve is fitted by a minimum sum of squares method. From this an IC50 value and Hill coefficient was obtained. High control (no inhibitor) and low control (saturating concentrations of standard inhibitor) were used to define the minimum and maximum values.

Row | SMILES | Emax [%] | IC50 [nM] | Enzymatic Emax (%) | Enzymatic hOGA; pIC50
1 | Cc1cc(C[C@H]2CCCN(C(C)c3nc(OC4CCC4)ccc3F)C2)cc(C)n1 (single isomer, unassigned) [Product 55] | 97 | 302 |  | 
2 | COc1cccc([C@@H](C)N2CCC[C@H](Cc3cc(C)nc(C)c3)C2)n1 [Product 46] |  |  | 12 | <5
3 | CCOc1cc(C(C)N2CCC[C@H](Cc3cc(C)nc(C)c3)C2)nn1C (mixture of isomers) [Product 18] | 95 | 575 |  | 
4 | Cc1cc(C[C@H]2CCCN([C@H](C)c3nc(OC4CCC4)ccc3F)C2)cc(C)n1 [Product 54] |  |  | 10 | <5
5 | Cc1cc(C[C@H]2CCCN([C@@H](C)c3cccc(C4CC4)n3)C2)cc(C)n1 [Product 60] |  |  | 88 | 5.81
6 | CC(=O)Nc1cc(CN2CCC[C@H](Cc3cc(C)nc(C)c3)C2)cnn1 [Product 62] | 94 | 513 |  | 
7 | CCOc1cc([C@@H](C)N2CCC[C@H](Cc3cc(C)nc(C)c3)C2)n[nH]1 [Product 15] |  |  | 65 | 5.27
8 | COc1ncc(C(C)N2CCC[C@H](Cc3cc(C)nc(C)c3)C2)cc1F (mixture of isomers) [Product 45] | 92 | 955 |  | 
9 | COc1cc(OC2CCCN(C(C)c3nc(OC)ccc3F)C2)cc(C)n1 (centres unmarked) [Product 81] | 99 | 562 |  | 
10 | COc1cccc([C@@H](C)N2CCC[C@H](CNc3cc(C)nc(C(F)(F)F)c3)C2)n1 [Product 92] |  |  | 74 | 5.31
11 | CCNc1cc(CN2CCC[C@H](Cc3cc(C)nc(C)c3)C2)n[nH]1 [Product 2] | 93 | 1050 |  | 
12 | COc1cccc(C(C)N2CCC[C@H](Cc3cc(OC)nc(C(F)(F)F)c3)C2)n1 (mixture of isomers) [Product 78] | 101 | 355 |  | 
13 | COc1ccc(F)c(C(C)N2CCC[C@H](Cc3cc(C)nc(C(F)(F)F)c3)C2)n1 (some centres unmarked) [Product 71] | 104 | 89.1 |  | 
14 | COc1cc(C(C)N2CCC[C@H](Cc3cc(C)nc(C)c3)C2)on1 (mixture of isomers) [Product 29] | 86 | 1260 |  | 
15 | CC(=O)Nc1[nH]nc([C@H](C)N2CCC[C@H](Cc3cc(C)nc(C)c3)C2)c1C [Product 13] |  |  | 7 | <5
16 | COc1cc(C2CCCN(C(C)c3cc(NC(C)=O)[nH]n3)C2)cc(C)n1 (centres unmarked) [Product 75] | 95 | 562 |  | 
17 | COc1cc(C(C)N2CCC[C@H](Cc3cc(C)nc(C)c3)C2)ccn1 (mixture of isomers) [Product 53] | 99 | 282 |  | 
18 | CC(=O)Nc1cc(C(C)N2CCCC(CNc3cc(C)nc(C)c3)C2)[nH]n1 (centres unmarked) [Product 87] |  | 28.8 |  | 
19 | CCOc1nc(CN2CCC[C@H](Cc3cc(C)nc(C)c3)C2)c(Br)[nH]1 [Product 22] | 63 | 6610 |  | 
20 | CC(=O)Nc1cc(C(C)N2CCCC(CNc3cc(C)nc(C)c3)C2)[nH]n1 (centres unmarked) [Product 83] | 103 | 60.3 |  | 
21 | CC(=O)Nc1cc(CN2CCC[C@H](Cc3cc(C)nc(C)c3)C2)cs1 [Product 27] | 89 | 1050 |  | 
22 | CNC(=O)c1cc(C(C)N2CC[C@H](Cc3cc(C)nc(OC)c3)C2)n[nH]1 (mixture of isomers) [Product 101] | 75 | 3160 |  | 
23 | COc1ccc(F)c([C@@H](C)N2CCC[C@H](Cc3cc(C)nc(C)c3)C2)n1 [Product 41] |  |  | 44 | <5
24 | CCOc1cccc(C(C)N2CCC[C@H](Cc3cc(C)nc(C)c3)C2)n1 (mixture of isomers) [Product 49] | 98 | 219 |  | 
25 | CC(=O)Nc1cc([C@@H](C)N2CCC[C@H](Cc3cc(C)nc(C)c3)C2)n[nH]1 [Product 4] |  |  | 100 | 6.61

Next, values leading:

Row | Emax [%] | IC50 [nM] | Enzymatic Emax (%) | Enzymatic hOGA; pIC50 | SMILES
26 | 73.3 | 3980 |  |  | CCOc1cc(C(C)N2CC[C@H](Cc3cc(C)nc(C)c3)C2)n[nH]1 (mixture of isomers) [Product 139]
27 | 96 | 741 |  |  | COc1cccc(C(C)N2CC[C@H](Cc3cc(C)nc(C(F)(F)F)c3)C2)n1 (mixture of isomers) [Product 121]
28 | 85 | 1660 |  |  | CNC(=O)c1cncc(C(C)N2CC[C@H](Cc3cc(C)nc(OC)c3)C2)c1 (mixture of isomers) [Product 103]
29 | 86 | 2820 |  |  | COc1cccc(C(C)N2CC[C@H](Cc3cc(OC)nc(C(F)(F)F)c3)C2)n1 (mixture of isomers) [Product 123]
30 | 26 | > 10000 |  |  | CCOc1cc(C[C@@H]2CCN(C(C)c3c[nH]c(OCC)n3)C2)ccn1 (mixture of isomers) [Product 164]
31 | 97 | 380 |  |  | COc1cc(C[C@@H]2CCN(C(C)c3cc(NC(C)=O)[nH]n3)C2)cc(C)n1 (mixture of isomers) [Product 131]
32 | 24 | > 10000 |  |  | Cc1cc(C[C@H]2CCCN(Cc3cnc(C4CC4)[nH]3)C2)cc(C)n1 [Product 165]
33 | 24 | > 10000 |  |  | COc1ccc(C)c(CN2CCC[C@H](Cc3cc(C)nc(C)c3)C2)n1 [Product 160]
34 | 30.5 | > 10000 |  |  | COc1cccc(C(C)N2CC[C@H](Cc3ccc(C(F)(F)F)nc3)C2)n1 (mixture of isomers) [Product 142]
35 | 30.3 | > 10000 |  |  | COc1cccc(C[C@H]2CCN(C(C)c3cccc(OC)n3)C2)n1 (mixture of isomers) [Product 149]
36 | 74 | 3890 |  |  | COc1ccc(F)c(C(C)N2CC[C@H](Cc3ncc(C)nc3C)C2)n1 (some centres unmarked) [Product 113]
37 | 35.6 | > 10000 |  |  | COc1cccc(C(C)N2CC[C@H](Cc3cncc(C(F)(F)F)c3)C2)n1 (mixture of isomers) [Product 141]
38 | 94 | 575 |  |  | COc1cc(C[C@H]2CCN(C(C)c3cc(NC(C)=O)[nH]n3)C2)cc(C)n1 (mixture of isomers) [Product 128]
39 | 60 | 7590 |  |  | COc1ccc(F)c([C@H](C)N2CC[C@H](Cc3ncc(F)cc3F)C2)n1 [Product 109]
40 | 85 | 1700 |  |  | COc1cc(C(C)N2CC[C@@H](Cc3cc(C)nc(OC)c3)C2)c(F)cn1 (mixture of isomers) [Product 102]
41 | 76 | 4170 |  |  | CCOc1cc(C[C@H]2CCN(C(C)c3cccc(OC)n3)C2)ccn1 (mixture of isomers) [Product 125]
42 | 29.3 | > 10000 |  |  | COc1cccc(C(C)N2CC[C@H](Cc3cccnc3OC)C2)n1 (mixture of isomers) [Product 140]
